Here are results for 10 molecules from US11510890B2, “Meroterpenoid compounds for use in the prevention and treatment of a neurological disorder” (SOCIETE DES PRODUITS NESTLE S.A., priority 2017, dated 2022).

Read-outs that look alike come from different tables or passages of the source.

A word on the IC50: it is the concentration at which inhibition is half-maximal.

In assay [1] the test system is Human astrocytoma cell line CCF-STTG1. Kind of assay: Lactate release screening assay (fluorescent enzymatic assay). The format is cell-based. Conditions: for Primary screen %: CCF-STTG1, supernatants after 2 hours. How it is done: Human astrocytoma cell line CCF-STTG1 was cultured at 37° C. in a humidified atmosphere (5% CO2) in RPMI-1640 medium supplemented with 10% (v/v) heat-inactivated fetal calf serum, 50 μg/ml penicillin and 100 μg/ml streptomycin.
CCF-STTG1 were seeded in 384-well plates. Two days later, the cells were washed 3 times and incubated 30 min in Krebs-Ringer bicarbonate HEPES (KRBH) buffer containing (in mM): 140 NaCl, 3.6 KCl, 0.5 NaH2PO4, 0.5 MgSO4, 1.5 CaCl2, 10 HEPES, 5 NaHCO3 (pH7.4) supplemented with 2.5 mM glucose. Then, the cells were maintained in the buffer in the presence of tested compounds. Supernatants were collected after 2 hours and were assessed for lactate concentration. Lactate concentration in the supernatants were determined by fluorescent enzymatic assay. Samples were diluted in assay reagent containing (in mM or U/ml)): 100 sodium phosphate (pH7.5), 0.1 EDTA, 0.05 Amplex UltraRed, 0.1 Lactate oxidase, 1.5 Horseradish Peroxidase.
Fluorescence emission was measured at 600 nm after an excitation at 500 nm using Bioteck Synergie Neo multimode reader after 30 min at room temperature protected from direct light.

Assay [2] deals with human iPSc derived into cardiomyocyte (iCell Cardiomyocytes). Kind of assay: Toxicity - ATP content (CellTiter-Glo). In kind it is cell-based. How it is done:
(§1) Differentiated human iPSCs (iCell astrocytes, and iCell cardiomyocytes) were obtained from Cellular Dynamics International (CDI, Madison, Wis., USA). iCell astrocytes were cultured in DMEM supplemented with 10% fetal calf serum and N2 complement. iCell cardiomyocytes were maintained in a medium supplied by CDI. Cell cultures were kept in a humidified atmosphere (5% CO2) at 37° C.
iCell Cardiomyocytes were seeded in 384-well plates. Eight days later cells were treated for 24 hours with compounds. Cell viability was determined by the quantification of intracellular ATP after cell lysis. ATP was used as an indicator of metabolically active cells. ATP was measured using a luminescent cell viability assay (CellTiter-Glo®; […]). Luminescence was measured after 20 min in a Bioteck Synergie Neo multimode reader.
Toxicity of the meroterpenoid compounds were evaluated in human IPS cell derived cardiomyocytes by measuring total ATP in cell lysates.
Dose response of compounds on human iPSc derived into cardiomyocyte with evaluation of the ATP level using cell titer glow. Results were normalized between untreated cells (100%) and positive control (0%).
(§2) The toxicity expressed in log IC50 (ATP content after 24 hours compound treatment on human iPSc derived into cardiomyocyte) was compared against the lactate release in log EC50 (lactate secretion after 2 hours compound treatment in human iPSc derived into astrocytes).
(In general: In ATP-based viability assays light output follows the ATP content of the culture.)

Assay [3] relates to human iPSc derived into astrocyte (iCell astrocytes). Put plainly: Lactate release dose response in human iPSc derived astrocytes. In kind it is cell-based. As for the experimental part:
Dose response curves were established for compounds identified in the screen to stimulate lactate secretion. The EC50 values for the stimulation of lactate secretion were determined using primary human IPS cell derived astrocytes.
as §1
Dose response of compounds on lactate release from human iPSc derived into astrocyte fitted with a log (agonist) vs. response variable slope to extract […] (EC50). Mean±SEM in duplicate.
as §2

The test system of the next assay is CCF-STTG1. Put plainly: Lactate release orthogonal assay (spectrophotometric enzymatic assay). The format is cell-based, human. The note with it: CCF-STTG1, supernatants after 2 hours, colorimetric kit. How it is done:
CCF-STTG1 were seeded in 384-well plates. Two days later, the cells were washed 3 times and incubated 30 min in Krebs-Ringer bicarbonate HEPES (KRBH) buffer containing (in mM): 140 NaCl, 3.6 KCl, 0.5 NaH2PO4, 0.5 MgSO4, 1.5 CaCl2, 10 HEPES, 5 NaHCO3 (pH7.4) supplemented with 2.5 mM glucose. The cells were maintained in the buffer in the presence of tested compounds. Supernatants were collected after 2 hours and assessed for lactate concentration. Lactate concentration in the supernatant was determined by a spectrophotometric enzymatic assay (lactate colorimetric assay kit II no. K627; BioVision, Milpitas, Calif. USA). In this kit, lactate is oxidized by lactate dehydrogenase to generate a product which interacts with a probe to produce a color (λmax=450 nm).
Absorbance was measure after 30 min at 450 nm using Bioteck Synergie Neo multimode reader. Background absorbance obtained in the absence of kit was subtracted from each value.
The stimulation of lactate secretion after treatment with meroterpenoid compounds was confirmed in an orthogonal assay based on another enzyme to measure lactate. The results of the lactate release measurement during the drug discovery screen for each compound and the results of lactate release measure with the orthogonal assay were correlated.

The mark [4] stands for this setting: ATP content after 24 hours compound treatment, read-out: Cardiomyocytes Toxicity IC50.
The mark [5] stands for this setting: log of IC50 in M, given negative, ATP content after 24 hours.
The mark [6] stands for this setting: lactate secretion after 2 hours compound treatment, read-out: Astrocytes Lactate release EC50.
The mark [7] stands for this setting: log of EC50 in M, given negative, 2 hours compound treatment.

Consider `CC(/C=C/C1(C)C(C)C=CC(=O)C1C)=C\Cc1c(O)c(Cl)c(C)c(C=O)c1O` (stereo not drawn) [22581-11-9], for which, in assay [1], the Primary screen % is listed as 68% and the Reconfirmation % was 50%. The IC50 in assay [2] (setting [4]) is 3.2 µM. In addition, in assay [2] (setting [5]), the “Cardiomyocytes Toxicity log IC50” value is given as −5.5. In addition, the EC50 in assay [3] (setting [6]) came to 0.014 µM. Also, in assay [3] (setting [7]), the “Astrocytes Lactate release logEC50” value is −7.9. In addition, the Orthogonal assay % with CCF-STTG1 worked out at 61%.

Turning to `COc1cc(CCc2ccccc2)c(C(=O)O)c(O)c1CC=C(C)C` [80489-90-3, Amorfrutin], in assay [1], the Primary screen % is reported as 85% and the Reconfirmation % stood at 122%. The half-maximal inhibitory concentration (IC50) in assay [2] (setting [4]) amounted to 47 µM. Besides, the “Cardiomyocytes Toxicity log IC50” value in assay [2] (setting [5]) was −4.3. For the same molecule, in assay [3] (setting [6]), the EC50 turned out to be 3.2 µM. Besides, in assay [3] (setting [7]), the “Astrocytes Lactate release logEC50” value is given as −5.5. In addition, the Orthogonal assay % in the assay on CCF-STTG1 was found to be 80%.

On to `C/C(=C\Cc1c(O)c(Cl)c(C)c(C=O)c1O)CC[C@@]1(C)[C@H](C)CCC(=O)[C@@H]1C` [22562-67-0, Ilicicolin C], for which, in assay [1], the Primary screen % turned out to be 70% and the Reconfirmation % amounted to 74%. Besides, the IC50 in assay [2] (setting [4]) stood at 71 µM. Further, the “Cardiomyocytes Toxicity log IC50” value in assay [2] (setting [5]) is on record as −4.2. Also, the EC50 in assay [3] (setting [6]) amounted to 0.15 µM. Besides, the “Astrocytes Lactate release logEC50” value in assay [3] (setting [7]) is −6.8. Moreover, the Orthogonal assay % in the assay on CCF-STTG1 stood at 84%.

As for `CC(=O)OC(C[C@@]1(C)[C@H](C)CCC(=O)[C@@H]1C)/C(C)=C/Cc1c(O)c(Cl)c(C)c(C=O)c1O` (stereo partly drawn) [38965-84-3, Chloronectrin], in assay [1], the Primary screen % turned out to be 104% and the Reconfirmation % amounted to 97%. The IC50 in assay [2] (setting [4]) amounted to 30 µM. Moreover, the “Cardiomyocytes Toxicity log IC50” value in assay [2] (setting [5]) is on record as −4.5. In addition, the Orthogonal assay % in the assay on CCF-STTG1 was determined as 68%.

Turning to `CC(C)=CCC/C(C)=C/Cc1c(O)cc(CCc2ccccc2)c(C(=O)O)c1O` [73436-04-1, 4-O-Demethylamorfrutin B], in assay [1], the Primary screen % was determined as 82% and the Reconfirmation % is 77%. Moreover, the EC50 in assay [3] (setting [6]) was determined as 10 µM. Besides, the “Astrocytes Lactate release logEC50” value in assay [3] (setting [7]) was −5.0. Besides, the Orthogonal assay % in the assay with CCF-STTG1 is on record as 68%.

Ilicicolin F [22738-98-3]: in assay [1], the Primary screen % amounted to 96% and the Reconfirmation % is 142%. Also, in assay [2] (setting [4]), the IC50 turned out to be 7 µM. Besides, the “Cardiomyocytes Toxicity log IC50” value in assay [2] (setting [5]) is on record as −5.2. Besides, the EC50 in assay [3] (setting [6]) is 0.027 µM. Also, in assay [3] (setting [7]), the “Astrocytes Lactate release logEC50” value is −7.6. Besides, in the assay with CCF-STTG1, the Orthogonal assay % turned out to be 119%.

On to `C/C(=C\Cc1c(O)cc(C)c(C=O)c1O)CC[C@@]1(C)[C@H](C)CCC(=O)[C@@H]1C` [22562-68-1, Antibiotic LL-Z 1272ε], for which, in assay [1], the Primary screen % amounted to 72% and the Reconfirmation % came out at 83%. Moreover, the IC50 in assay [2] (setting [4]) worked out at 81 µM. Besides, the “Cardiomyocytes Toxicity log IC50” value in assay [2] (setting [5]) is −4.1. Besides, in assay [3] (setting [6]), the EC50 was found to be 2.6 µM. The “Astrocytes Lactate release logEC50” value in assay [3] (setting [7]) is reported as −5.6. Besides, in the assay on CCF-STTG1, the Orthogonal assay % was 68%.

Regarding `CC(/C=C/[C@@]1(C)[C@H](C)CCC(=O)[C@@H]1C)=C\Cc1c(O)cc(C)c(C=O)c1O` [165187-16-6, Cylindrol B], in assay [1], the Primary screen % is on record as 100% and the Reconfirmation % is reported as 61%. Moreover, in assay [2] (setting [4]), the IC50 was 31 µM. In assay [2] (setting [5]), the “Cardiomyocytes Toxicity log IC50” value is −4.5. The EC50 in assay [3] (setting [6]) amounted to 6.7 µM. Besides, in assay [3] (setting [7]), the “Astrocytes Lactate release logEC50” value is listed as −5.2. In addition, the Orthogonal assay % with CCF-STTG1 was determined as 67%.

With Lasalocid [25999-31-9], in assay [1], the Primary screen % worked out at 88% and the Reconfirmation % stood at 73%. In addition, the half-maximal inhibitory concentration (IC50) in assay [2] (setting [4]) is 11 µM. Moreover, the “Cardiomyocytes Toxicity log IC50” value in assay [2] (setting [5]) is −4.9. In assay [3] (setting [6]), the EC50 worked out at 4.4 µM. Further, the “Astrocytes Lactate release logEC50” value in assay [3] (setting [7]) is given as −5.4. Besides, the Orthogonal assay % in the assay on CCF-STTG1 was determined as 53%.

For `CC(/C=C/[C@@]1(C)[C@H](C)CCC(=O)[C@@H]1C)=C\Cc1c(O)c(Cl)c(C)c(C=O)c1O` [26166-39-2, Ascochlorin], the IC50 in assay [2] (Homo sapiens, iPSC, ATP content after 24 hours compound treatment, read-out: Cardiomyocytes Toxicity IC50) is 1.2 µM; in assay [2] (Homo sapiens, iPSC, log of IC50 in M, given negative, ATP content after 24 hours, read-out: Cardiomyocytes Toxicity log IC50 (converted)), 1.26 µM. In addition, the EC50 in assay [3] (Homo sapiens, iPSC, lactate secretion after 2 hours compound treatment, read-out: Astrocytes Lactate release EC50) is 0.011 µM; in assay [3] (Homo sapiens, iPSC, log of EC50 in M, given negative, 2 hours compound treatment, read-out: Astrocytes Lactate release logEC50 (converted)), 0.0126 µM.
